Data on 2 compounds can be found in patent US6632669B2, “Plant kinases and methods of modulation of their activity in plants” (The Salk Institute for Biological Studies, priority 1999, dated 2003).

Molecules are shown by their SMILES.

The subject of one assay is Arabidopsis MAP kinase. To be noted: tobacco cell extract, protoplasts treated with 2,4-D; cited from earlier work.
A further assay has as its system 35S::PID T2 plants. Description: Lateral root formation of 35S::PID T2 plants grown on plates supplemented with NAA. The format is in vivo, Arabidopsis. To be noted: 10 days on 0.1 μm NAA. On the procedure: (§1) Plants were grown in florescent light under long-day conditions (16 hours light, 8 hours dark). Wild type was Columbia. Transgenic plants were generated by vacuum infiltration (Bechtold et al. (1993) C. R. Acad. Sci. 316:1194-1199). For root gravitropism experiments, seeds were grown on vertically oriented 1/2×MS plates at 24° C.
To determine whether the loss of lateral root formation in 35::PID plants could be bypassed by exogenous auxin, T2 plants were grown on plates supplemented with the synthetic auxin-analog NAA ([…]). […] As in the previous experiment, there was a perfect correlation between loss of lateral root formation and agravitropic root growth.

The subject of a further assay is 35S::PID plants. Description: Root growth in response to exogenous auxin in 35S::PID plants (selected on kanamycin plates with NAA). The assay is classed as in vivo, Arabidopsis. Conditions: for Lateral roots / Primary root length: mean ± standard deviation. On the procedure: as §1
The failure of 35S::PID plants to develop lateral roots in response to exogenous auxin can be explained by defects in either auxin uptake or response. To distinguish between these possibilities, 35S: PID plants was selected on plates containing kanamycin and 0, 0.1, 1.0 or 10.0 μM NAA.

`O=C(O)COc1ccc(Cl)cc1Cl` [2,4-D]: the “Effectiveness of MAP kinase phosphorylation by extract of treated protoplasts versus extracts from auxin-starved cultures” value in the assay on Arabidopsis MAP kinase is listed as “three to four-fold more effective”.

With `O=C(O)Cc1ccc2ccccc2c1` [NAA, β-napthaleneacetic acid], the “Bypass of the block in lateral root formation caused by PID overexpression” value with 35S::PID T2 plants (T2 plants) was “did not overcome the block in lateral root formation”. In addition, in the assay with 35S::PID T2 plants (T2 progeny of 35S::PID, 11 of 37 germinated seedlings (range 18-31), remaining 26 produced none), the “Average number of lateral roots in seedlings that produced lateral roots” value is recorded as 24. In the assay on 35S::PID plants (35S::PID plants), the “Lateral root growth at very high NAA concentrations” value is “still inhibited”. Moreover, the “Primary root elongation with increasing NAA concentration” value in the assay with 35S::PID plants (35S::PID plants, 0, 0.1, 1.0 or 10.0 μM NAA) is on record as “progressively inhibited”. Moreover, the Lateral roots in the assay with 35S::PID plants (35S::PID plants, [NAA] 0.1 μM) is 0.1 ± 0.3; in the assay on 35S::PID plants (35S::PID plants, [NAA] 1 μM), 0.1 ± 0.3; in the assay with 35S::PID plants (35S::PID plants, [NAA] 10 μM), 0.7 ± 1.2. Also, the Primary root length in the assay with 35S::PID plants (35S::PID plants, [NAA] 0.1 μM) is given as 11.6 ± 5.9 mm; in the assay on 35S::PID plants (35S::PID plants, [NAA] 1 μM), 6.0 ± 3.1 mm; in the assay on 35S::PID plants (35S::PID plants, [NAA] 10 μM), 1.4 ± 0.5 mm.
